Values after ≈ are worked out from the molar mass of the structure shown. Like-named read-outs stand apart in the source and are kept apart here.
Tests used:
Pseudomonas aeruginosa = details: including carbapenem-resistant strains; cited from earlier work
Acinetobacter baumannii = details: including carbapenem-resistant strains; cited from earlier work
AmpC_PA = target: T1, AmpC_PA (Pseudomonas aeruginosa, UniProt P24735); assay: β-lactamase inhibition, spectrophotometric assay of nitrocefin hydrolysis; assay type: biochemical, P. aeruginosa
T1 construct: made in house
Description: (§1) Hydrolytic inactivation of the β-lactam antibiotics by β-lactamases is the most widespread drug resistant mechanism and the most challenge clinically among Gram-negative bacterial pathogens. Based on the amino acid sequences, the β-lactamases are grouped into four classes (Ambler classification), of which A, C and D are serine hydrolases and B encompasses metallo-β-lactamases. The IC50 of selected derivatives disclosed herein (identified with reference to example number) plus six reference β-lactam or β-lactamase inhibitors were determined against 7 representative β-lactamases of various classes in a standard spectrophotometric assay of nitrocefin hydrolysis. The assay is performed in 384-well plate. The seven recombinant β-lactamases AmpC_AB (from A. baumannii), AmpC_PA (from P. aeruginosa), KPC-2, NDM-1, IMP-1, VIM-1 and OXA 24/40) are expressed and purified. The reaction buffer for class A, C and D enzymes is 100 mM Na2HPO4—KH2PO4 (pH 7.1) plus 0.005% Tween-20, and for class B enzymes 10 μM ZnSO4 is added. […] The 50 μL of reaction solution composed of 2 pM of β-lactamase, 200 μM of nitrocefin and series of 3-fold dilutions of test or control compounds are added by Cybio SELMA system into 384-plate and incubated in dark at 25° C. for 2 hours. The OD490 is read in MC SpectraMax Plus384 plate reader.

KPC-2 = target: T2, KPC-2 (Klebsiella pneumoniae, UniProt Q9F663); assay: as above; assay type: biochemical
T2 construct: made in house
Description: as §1

IMP-1 = target: T3, IMP-1 (Serratia marcescens, UniProt P52699); assay: as above; assay type: biochemical
T3 construct: made in house
Description: as §1

VIM-1 = target: T4, VIM-1 (Pseudomonas aeruginosa, UniProt A0A0F7KYQ8); assay: as above; assay type: biochemical
T4 construct: made in house
Description: as §1

NDM-1 = target: T5, NDM-1 (Klebsiella pneumoniae, UniProt C7C422); assay: as above; assay type: biochemical
T5 construct: made in house
Description: as §1

OXA 24/40 = target: T6, OXA 24/40 (Acinetobacter baumannii, UniProt Q8RLA6); assay: as above; assay type: biochemical
T6 construct: made in house
Description: as §1

AmpC_AB = AmpC_AB (Acinetobacter baumannii, UniProt Q6DRA1); assay: as above; assay type: biochemical
Description: as §1

A.b TNP 41708 = assay: MIC against A. baumannii clinical isolates, alone and in combination with antibiotics; assay type: cell-based; details: for MIC: Acinetobacter baumannii, TNP41708, read-out: MIC A.b TNP 41708
Procedure, shortened: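 Inoculum set at […]. MICs come from broth microdilution run according to CLSI, minor modifications applied.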

A.b TNP 41709 = assay: as above; assay type: cell-based; details: for MIC: Acinetobacter baumannii
K. pneumoniae ATCC 43816 = assay: MIC determination, broth microdilution, ESKAPE panel; assay type: cell-based; details: Klebsiella pneumoniae
Procedure, shortened: (§2)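 MIC read by broth microdilution following CLSI guidance, with minor changes. Each well received a bacterial inoculum of […].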

E. faecium ATCC 700221 = assay: as above; assay type: cell-based; details: Enterococcus faecium
Procedure, shortened: as §2

A. baumannii ATCC 19606 = assay: as above; assay type: cell-based; details: Acinetobacter baumannii
Procedure, shortened: as §2

P. aeruginosa ATCC 27853 = assay: as above; assay type: cell-based; details: Pseudomonas aeruginosa
Procedure, shortened: as §2

[1] = tested on: Escherichia coli ATCC 25922; assay: as above; assay type: cell-based
Procedure, shortened: as §2

S. aureus ATCC 29213 = assay: as above; assay type: cell-based; details: Staphylococcus aureus
Procedure, shortened: as §2

A.b TNP 41704 = assay: MIC against A. baumannii clinical isolates, alone and in combination with antibiotics; assay type: cell-based; details: for MIC: Acinetobacter baumannii
[2] = class A β-lactamase, 200 μM nitrocefin, 25° C., 2 hours, read-out: IC50 KPC-2
[3] = class B β-lactamase, 10 μM ZnSO4, 200 μM nitrocefin, 25° C., 2 hours, read-out: IC50 IMP-1
[4] = class B β-lactamase, 10 μM ZnSO4, 200 μM nitrocefin, 25° C., 2 hours, read-out: IC50 VIM-1
[5] = class B β-lactamase, 10 μM ZnSO4, 200 μM nitrocefin, 25° C., 2 hours, read-out: IC50 NDM-1
[6] = Class C β-lactamase, 200 μM nitrocefin, 25° C., 2 hours, read-out: IC50 AmpC_AB
[7] = TNP41709, Compounds alone, read-out: MIC A.b TNP 41709
[8] = ATCC43816, iron-depleted cation-adjusted Mueller-Hinton broth, 2,2-dipyridyl 160 μM, 37° C., 18-20 hours, read-out: MIC K. pneumoniae ATCC 43816
[9] = ATCC700221, iron-depleted cation-adjusted Mueller-Hinton broth, 2,2-dipyridyl 160 μM, 37° C., 18-20 hours, read-out: MIC E. faecium ATCC 700221
[10] = ATCC19606, iron-depleted cation-adjusted Mueller-Hinton broth, 2,2-dipyridyl 160 μM, 37° C., 18-20 hours, read-out: MIC A. baumannii ATCC 19606
[11] = ATCC27853, iron-depleted cation-adjusted Mueller-Hinton broth, 2,2-dipyridyl 160 μM, 37° C., 18-20 hours, read-out: MIC P. aeruginosa ATCC 27853
[12] = ATCC25922, iron-depleted cation-adjusted Mueller-Hinton broth, 2,2-dipyridyl 160 μM, 37° C., 18-20 hours, read-out: MIC E. coli ATCC 25922
[13] = ATCC29213, iron-depleted cation-adjusted Mueller-Hinton broth, 2,2-dipyridyl 160 μM, 37° C., 18-20 hours, read-out: MIC S. aureus ATCC 29213
[14] = TNP41704, Compounds alone, read-out: MIC A.b TNP 41704

T1 sequence (P24735 27-397): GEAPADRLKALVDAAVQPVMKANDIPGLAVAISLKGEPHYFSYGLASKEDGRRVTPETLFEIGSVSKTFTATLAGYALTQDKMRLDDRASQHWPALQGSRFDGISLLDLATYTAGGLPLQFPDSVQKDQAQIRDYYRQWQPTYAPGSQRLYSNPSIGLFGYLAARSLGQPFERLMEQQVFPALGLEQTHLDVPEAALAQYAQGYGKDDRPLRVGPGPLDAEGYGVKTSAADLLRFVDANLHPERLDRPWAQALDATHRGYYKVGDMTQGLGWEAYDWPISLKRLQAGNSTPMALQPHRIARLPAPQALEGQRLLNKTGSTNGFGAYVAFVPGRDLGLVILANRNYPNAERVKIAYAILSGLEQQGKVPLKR
T6 sequence (Q8RLA6 22-275): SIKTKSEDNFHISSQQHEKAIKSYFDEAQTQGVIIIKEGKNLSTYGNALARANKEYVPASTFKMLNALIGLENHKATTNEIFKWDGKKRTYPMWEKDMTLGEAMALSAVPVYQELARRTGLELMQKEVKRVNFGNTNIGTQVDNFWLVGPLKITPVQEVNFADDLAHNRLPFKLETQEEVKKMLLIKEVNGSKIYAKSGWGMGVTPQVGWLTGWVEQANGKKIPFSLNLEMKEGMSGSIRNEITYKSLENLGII
T5 sequence (C7C422 29-270, looked up, species assumed): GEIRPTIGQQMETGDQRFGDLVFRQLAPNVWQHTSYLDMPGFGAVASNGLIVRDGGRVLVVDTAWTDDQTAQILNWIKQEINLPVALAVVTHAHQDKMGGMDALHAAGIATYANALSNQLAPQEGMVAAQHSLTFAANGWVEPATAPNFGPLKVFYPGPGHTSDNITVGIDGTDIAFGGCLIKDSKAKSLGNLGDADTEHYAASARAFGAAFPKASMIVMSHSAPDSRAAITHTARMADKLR
T2 sequence (Q9F663 25-293, looked up, species assumed): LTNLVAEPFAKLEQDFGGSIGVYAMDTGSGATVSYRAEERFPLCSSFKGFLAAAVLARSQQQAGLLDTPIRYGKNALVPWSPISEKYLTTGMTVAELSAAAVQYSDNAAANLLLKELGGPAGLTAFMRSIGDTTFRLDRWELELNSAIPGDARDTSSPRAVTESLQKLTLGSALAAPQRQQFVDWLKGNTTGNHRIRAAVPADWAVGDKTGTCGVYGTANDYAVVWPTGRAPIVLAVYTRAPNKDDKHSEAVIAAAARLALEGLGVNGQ
T3 sequence (P52699 19-246, looked up, species assumed): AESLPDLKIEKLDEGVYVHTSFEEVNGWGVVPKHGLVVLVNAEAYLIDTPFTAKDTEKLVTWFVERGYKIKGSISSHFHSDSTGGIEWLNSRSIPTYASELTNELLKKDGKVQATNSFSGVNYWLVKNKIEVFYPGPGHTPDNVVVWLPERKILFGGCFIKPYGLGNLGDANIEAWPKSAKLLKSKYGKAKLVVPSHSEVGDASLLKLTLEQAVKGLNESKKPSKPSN

CC(C)(O/N=C(\C(=O)N[C@@H]1C(=O)N2C(C(=O)[O-])=C(C[N+]3(CCNC(=O)c4ccc(O)c(O)c4Cl)CCCC3)CS[C@H]12)c1csc(N)n1)C(=O)O [Cefiderocol]
antibacterial activity against Pseudomonas aeruginosa (Pseudomonas aeruginosa): potent antibacterial activity | antibacterial activity against Acinetobacter baumannii (Acinetobacter baumannii): potent antibacterial activity

C[C@]1(COC(=O)NNC(=O)c2ccc(O)c(O)c2Cl)[C@H](C(=O)O)N2C(=O)C[C@H]2S1(=O)=O [Example 70, (2S,3R,5R)-3-(((2-(2-chloro-3,4-dihydroxybenzoyl)hydrazinecarbonyl)oxy)methyl)-3-methyl-7-oxo-4-thia-1-azabicyclo[3.2.0]heptane-2-carboxylic acid 4,4-dioxide]
IC50 (AmpC_PA): 9.14 µM | IC50 (KPC-2; [2]): 140 µM | activity against KPC-2 of class A (in words) (KPC-2; text summary of Table 4): weak activity | IC50 (IMP-1; [3]): > 200 µM | IC50 (VIM-1; [4]): > 200 µM | IC50 (NDM-1; [5]): > 200 µM | IC50 (OXA 24/40): 29.6 µM | IC50 (AmpC_AB; [6]): 7.18 µM | MIC (A.b TNP 41708): 16 µg/mL | MIC A.b TNP 41708 (A.b TNP 41708; Compounds + meropenem (1:1)): 8 µg/mL | MIC A.b TNP 41708 (A.b TNP 41708; Compounds + sulbactam (1:1)): 8 µg/mL | MIC (A.b TNP 41709; [7]): 8 µg/mL | MIC A.b TNP 41709 (A.b TNP 41709; Compounds + meropenem (1:1)): 4 µg/mL | MIC A.b TNP 41709 (A.b TNP 41709; Compounds + sulbactam (1:1)): 4 µg/mL | MIC (K. pneumoniae ATCC 43816; [8]): > 128 µg/mL | MIC (E. faecium ATCC 700221; [9]): > 128 µg/mL | MIC (A. baumannii ATCC 19606; [10]): 1 µg/mL (≈ 2.09 µM) | MIC (P. aeruginosa ATCC 27853; [11]): > 128 µg/mL | MIC [1, 12]: > 128 µg/mL | MIC (S. aureus ATCC 29213; [13]): > 128 µg/mL | MIC (A.b TNP 41704; [14]): 8 µg/mL | MIC A.b TNP 41704 (A.b TNP 41704; Compounds + meropenem (1:1)): 8 µg/mL | MIC A.b TNP 41704 (A.b TNP 41704; Compounds + sulbactam (1:1)): 4 µg/mL

C[C@]1(/C=N/NC(=O)c2ccc(O)c(O)c2)[C@H](C(=O)O)N2C(=O)C[C@H]2S1(=O)=O [Example 5, (2S,3R,5R)-3-((E)-(2-(3,4-dihydroxybenzoyl)hydrazono)methyl)-3-methyl-7-oxo-4-thia-1-azabicyclo[3.2.0]heptane-2-carboxylic acid 4,4-dioxide]
IC50 (AmpC_PA): 1.72 µM | IC50 (KPC-2; [2]): > 200 µM | IC50 (IMP-1; [3]): > 200 µM | IC50 (VIM-1; [4]): > 200 µM | IC50 (NDM-1; [5]): > 200 µM | IC50 (OXA 24/40): 11.6 µM | IC50 (AmpC_AB; [6]): 1.04 µM | MIC (A.b TNP 41708): > 128 µg/mL | MIC A.b TNP 41708 (A.b TNP 41708; Compounds + meropenem (1:1)): 4 µg/mL | MIC A.b TNP 41708 (A.b TNP 41708; Compounds + sulbactam (1:1)): 8 µg/mL | MIC (A.b TNP 41709; [7]): 32 µg/mL | MIC A.b TNP 41709 (A.b TNP 41709; Compounds + meropenem (1:1)): 2 µg/mL | MIC A.b TNP 41709 (A.b TNP 41709; Compounds + sulbactam (1:1)): 4 µg/mL | MIC (K. pneumoniae ATCC 43816; [8]): 32 µg/mL (≈ 80.5 µM) | MIC (E. faecium ATCC 700221; [9]): > 128 µg/mL | MIC (A. baumannii ATCC 19606; [10]): 4 µg/mL (≈ 10.1 µM) | MIC (P. aeruginosa ATCC 27853; [11]): > 128 µg/mL | MIC [1, 12]: 64 µg/mL (≈ 161 µM) | MIC (S. aureus ATCC 29213; [13]): 128 µg/mL (≈ 322 µM) | MIC (A.b TNP 41704; [14]): > 128 µg/mL | MIC A.b TNP 41704 (A.b TNP 41704; Compounds + meropenem (1:1)): 4 µg/mL | MIC A.b TNP 41704 (A.b TNP 41704; Compounds + sulbactam (1:1)): 4 µg/mL

CC1(C)[C@H](C(=O)O)N2C(=O)C[C@H]2S1(=O)=O [Sulbactam, reference compound]
IC50 (AmpC_PA): 10.3 µM | IC50 (KPC-2): 53.4 µM | IC50 (IMP-1): > 200 µM | IC50 (VIM-1): > 200 µM | IC50 (NDM-1): > 200 µM | IC50 (OXA 24/40): > 200 µM | IC50 (AmpC_AB): 10.3 µM | MIC (A.b TNP 41708): 32 µg/mL | MIC (A.b TNP 41709; TNP41709, read-out: MIC A.b TNP 41709): 32 µg/mL | MIC (K. pneumoniae ATCC 43816; ATCC43816, read-out: MIC K. pneumoniae ATCC 43816): 64 µg/mL (≈ 274 µM) | MIC (E. faecium ATCC 700221; ATCC700221, read-out: MIC E. faecium ATCC 700221): > 128 µg/mL | MIC (A. baumannii ATCC 19606; ATCC19606, read-out: MIC A. baumannii ATCC 19606): 0.5 µg/mL (≈ 2.14 µM) | MIC (P. aeruginosa ATCC 27853; ATCC27853, read-out: MIC P. aeruginosa ATCC 27853): > 128 µg/mL | MIC ([1]; ATCC25922, read-out: MIC E. coli ATCC 25922): 32 µg/mL (≈ 137 µM) | MIC (S. aureus ATCC 29213; ATCC29213, read-out: MIC S. aureus ATCC 29213): > 128 µg/mL | MIC (A.b TNP 41704; TNP41704, read-out: MIC A.b TNP 41704): 8 µg/mL

From US11040987B2 (TenNor Therapeutics Limited, priority 2019, dated 2021)
